Laboratory results published in the NIST ThermoML archive (doi:10.1021/je1013476).
± gives the expanded uncertainty stated by the source.

Experiments:
[1] = xn = mol fraction of the nth substance listed; conditions: 101 kPa, Liquid; for viscosity: Capillary tube (Ostwald / Ubbelohde) method; for mass density: Vibrating tube method
[2] = excess molar enthalpy (molar enthalpy of mixing); xn = mol fraction of the nth substance listed; conditions: 303.15 K, 101 kPa, Liquid, Calvet calorimetry

CCOC(=O)OCC [diethyl carbonate] + CCO
viscosity ([1]; 288.15 K, x1 = 0.05544): 1.181 ± 0.011 mPa·s | viscosity ([1]; 288.15 K, x1 = 0.1): 1.111 ± 0.011 mPa·s | viscosity ([1]; 288.15 K, x1 = 0.197): 0.996 ± 0.01 mPa·s | viscosity ([1]; 288.15 K, x1 = 0.2998): 0.917 ± 0.009 mPa·s | viscosity ([1]; 288.15 K, x1 = 0.4062): 0.864 ± 0.009 mPa·s | viscosity ([1]; 288.15 K, x1 = 0.5039): 0.838 ± 0.008 mPa·s | viscosity ([1]; 288.15 K, x1 = 0.613): 0.821 ± 0.008 mPa·s | viscosity ([1]; 288.15 K, x1 = 0.6939): 0.815 ± 0.008 mPa·s | viscosity ([1]; 288.15 K, x1 = 0.7942): 0.819 ± 0.008 mPa·s | viscosity ([1]; 288.15 K, x1 = 0.8992): 0.834 ± 0.008 mPa·s | viscosity ([1]; 288.15 K, x1 = 0.9744): 0.856 ± 0.008 mPa·s | mass density ([1]; 288.15 K, x1 = 0.05544): 813.88 ± 0.11 kg/m3 | mass density ([1]; 288.15 K, x1 = 0.1): 828.53 ± 0.11 kg/m3 | mass density ([1]; 288.15 K, x1 = 0.197): 856.33 ± 0.1 kg/m3 | mass density ([1]; 288.15 K, x1 = 0.2998): 881.02 ± 0.09 kg/m3 | mass density ([1]; 288.15 K, x1 = 0.4062): 902.55 ± 0.09 kg/m3 | mass density ([1]; 288.15 K, x1 = 0.5039): 919.48 ± 0.08 kg/m3 | mass density ([1]; 288.15 K, x1 = 0.613): 935.91 ± 0.08 kg/m3 | mass density ([1]; 288.15 K, x1 = 0.6939): 946.73 ± 0.08 kg/m3 | mass density ([1]; 288.15 K, x1 = 0.7942): 958.83 ± 0.08 kg/m3 | mass density ([1]; 288.15 K, x1 = 0.8992): 970.29 ± 0.07 kg/m3 | mass density ([1]; 288.15 K, x1 = 0.9744): 977.89 ± 0.07 kg/m3 | viscosity ([1]; 293.15 K, x1 = 0.05208): 1.115 ± 0.011 mPa·s | viscosity ([1]; 293.15 K, x1 = 0.09645): 1.045 ± 0.01 mPa·s | viscosity ([1]; 293.15 K, x1 = 0.1983): 0.93 ± 0.009 mPa·s | viscosity ([1]; 293.15 K, x1 = 0.2931): 0.867 ± 0.009 mPa·s | viscosity ([1]; 293.15 K, x1 = 0.4089): 0.818 ± 0.008 mPa·s | viscosity ([1]; 293.15 K, x1 = 0.4945): 0.794 ± 0.008 mPa·s | viscosity ([1]; 293.15 K, x1 = 0.6111): 0.777 ± 0.008 mPa·s | viscosity ([1]; 293.15 K, x1 = 0.6787): 0.771 ± 0.008 mPa·s | viscosity ([1]; 293.15 K, x1 = 0.7692): 0.77 ± 0.008 mPa·s | viscosity ([1]; 293.15 K, x1 = 0.8767): 0.779 ± 0.008 mPa·s | viscosity ([1]; 293.15 K, x1 = 0.9444): 0.791 ± 0.008 mPa·s | mass density ([1]; 293.15 K, x1 = 0.05208): 808.2 ± 0.12 kg/m3 | mass density ([1]; 293.15 K, x1 = 0.09645): 822.76 ± 0.11 kg/m3 | mass density ([1]; 293.15 K, x1 = 0.1983): 851.8 ± 0.1 kg/m3 | mass density ([1]; 293.15 K, x1 = 0.2931): 874.46 ± 0.1 kg/m3 | mass density ([1]; 293.15 K, x1 = 0.4089): 897.78 ± 0.09 kg/m3 | mass density ([1]; 293.15 K, x1 = 0.4945): 912.58 ± 0.09 kg/m3 | mass density ([1]; 293.15 K, x1 = 0.6111): 930.21 ± 0.08 kg/m3 | mass density ([1]; 293.15 K, x1 = 0.6787): 939.26 ± 0.08 kg/m3 | mass density ([1]; 293.15 K, x1 = 0.7692): 950.39 ± 0.08 kg/m3 | mass density ([1]; 293.15 K, x1 = 0.8767): 962.34 ± 0.08 kg/m3 | mass density ([1]; 293.15 K, x1 = 0.9444): 969.33 ± 0.08 kg/m3 | viscosity ([1]; 303.15 K, x1 = 0.04589): 0.937 ± 0.009 mPa·s | viscosity ([1]; 303.15 K, x1 = 0.09693): 0.88 ± 0.009 mPa·s | viscosity ([1]; 303.15 K, x1 = 0.1943): 0.799 ± 0.008 mPa·s | viscosity ([1]; 303.15 K, x1 = 0.2843): 0.747 ± 0.007 mPa·s | viscosity ([1]; 303.15 K, x1 = 0.4098): 0.703 ± 0.007 mPa·s | viscosity ([1]; 303.15 K, x1 = 0.5128): 0.686 ± 0.007 mPa·s | viscosity ([1]; 303.15 K, x1 = 0.6176): 0.678 ± 0.007 mPa·s | viscosity ([1]; 303.15 K, x1 = 0.6907): 0.675 ± 0.007 mPa·s | viscosity ([1]; 303.15 K, x1 = 0.7896): 0.675 ± 0.007 mPa·s | viscosity ([1]; 303.15 K, x1 = 0.8863): 0.681 ± 0.007 mPa·s | viscosity ([1]; 303.15 K, x1 = 0.9676): 0.694 ± 0.007 mPa·s | mass density ([1]; 303.15 K, x1 = 0.04589): 797.14 ± 0.12 kg/m3 | mass density ([1]; 303.15 K, x1 = 0.09693): 813.63 ± 0.11 kg/m3 | mass density ([1]; 303.15 K, x1 = 0.1943): 840.98 ± 0.11 kg/m3 | mass density ([1]; 303.15 K, x1 = 0.2843): 862.32 ± 0.1 kg/m3 | mass density ([1]; 303.15 K, x1 = 0.4098): 887.33 ± 0.09 kg/m3 | mass density ([1]; 303.15 K, x1 = 0.5128): 904.7 ± 0.09 kg/m3 | mass density ([1]; 303.15 K, x1 = 0.6176): 920.01 ± 0.09 kg/m3 | mass density ([1]; 303.15 K, x1 = 0.6907): 929.62 ± 0.08 kg/m3 | mass density ([1]; 303.15 K, x1 = 0.7896): 941.46 ± 0.08 kg/m3 | mass density ([1]; 303.15 K, x1 = 0.8863): 951.96 ± 0.08 kg/m3 | mass density ([1]; 303.15 K, x1 = 0.9676): 960.23 ± 0.08 kg/m3 | viscosity ([1]; 313.15 K, x1 = 0.04956): 0.761 ± 0.008 mPa·s | viscosity ([1]; 313.15 K, x1 = 0.09649): 0.715 ± 0.007 mPa·s | viscosity ([1]; 313.15 K, x1 = 0.207): 0.647 ± 0.007 mPa·s | viscosity ([1]; 313.15 K, x1 = 0.2847): 0.618 ± 0.006 mPa·s | viscosity ([1]; 313.15 K, x1 = 0.3982): 0.591 ± 0.006 mPa·s | viscosity ([1]; 313.15 K, x1 = 0.5049): 0.578 ± 0.006 mPa·s | viscosity ([1]; 313.15 K, x1 = 0.6079): 0.574 ± 0.006 mPa·s | viscosity ([1]; 313.15 K, x1 = 0.6227): 0.573 ± 0.006 mPa·s | viscosity ([1]; 313.15 K, x1 = 0.6895): 0.575 ± 0.006 mPa·s | viscosity ([1]; 313.15 K, x1 = 0.7826): 0.58 ± 0.006 mPa·s | viscosity ([1]; 313.15 K, x1 = 0.8924): 0.594 ± 0.006 mPa·s | viscosity ([1]; 313.15 K, x1 = 0.9563): 0.606 ± 0.006 mPa·s | mass density ([1]; 313.15 K, x1 = 0.04956): 789.32 ± 0.12 kg/m3 | mass density ([1]; 313.15 K, x1 = 0.09649): 804.16 ± 0.12 kg/m3 | mass density ([1]; 313.15 K, x1 = 0.207): 834.28 ± 0.11 kg/m3 | mass density ([1]; 313.15 K, x1 = 0.2847): 852.21 ± 0.11 kg/m3 | mass density ([1]; 313.15 K, x1 = 0.3982): 874.66 ± 0.1 kg/m3 | mass density ([1]; 313.15 K, x1 = 0.5049): 892.56 ± 0.1 kg/m3 | mass density ([1]; 313.15 K, x1 = 0.6079): 907.66 ± 0.09 kg/m3 | mass density ([1]; 313.15 K, x1 = 0.6227): 909.67 ± 0.09 kg/m3 | mass density ([1]; 313.15 K, x1 = 0.6895): 918.3 ± 0.09 kg/m3 | mass density ([1]; 313.15 K, x1 = 0.7826): 929.4 ± 0.09 kg/m3 | mass density ([1]; 313.15 K, x1 = 0.8924): 941.3 ± 0.08 kg/m3 | mass density ([1]; 313.15 K, x1 = 0.9563): 947.79 ± 0.08 kg/m3 | excess molar enthalpy ([2]; x1 = 0.06432): 0.0943 ± 0.00206 kcal/mol | excess molar enthalpy ([2]; x1 = 0.1113): 0.152 ± 0.00335 kcal/mol | excess molar enthalpy ([2]; x1 = 0.1833): 0.226 ± 0.00478 kcal/mol | excess molar enthalpy ([2]; x1 = 0.2439): 0.276 ± 0.00598 kcal/mol | excess molar enthalpy ([2]; x1 = 0.3034): 0.317 ± 0.00669 kcal/mol | excess molar enthalpy ([2]; x1 = 0.3739): 0.356 ± 0.00765 kcal/mol | excess molar enthalpy ([2]; x1 = 0.4258): 0.378 ± 0.00813 kcal/mol | excess molar enthalpy ([2]; x1 = 0.5066): 0.395 ± 0.00837 kcal/mol | excess molar enthalpy ([2]; x1 = 0.5445): 0.395 ± 0.00837 kcal/mol | excess molar enthalpy ([2]; x1 = 0.64): 0.39 ± 0.00837 kcal/mol | excess molar enthalpy ([2]; x1 = 0.7134): 0.366 ± 0.00789 kcal/mol | excess molar enthalpy ([2]; x1 = 0.7663): 0.335 ± 0.00717 kcal/mol | excess molar enthalpy ([2]; x1 = 0.8243): 0.285 ± 0.00621 kcal/mol | excess molar enthalpy ([2]; x1 = 0.8998): 0.189 ± 0.00406 kcal/mol | excess molar enthalpy ([2]; x1 = 0.9557): 0.0946 ± 0.00208 kcal/mol
